{
  "source": "the supplement of paper PMC10307832",
  "test_in_all_cases": "relative viability (nuclei count vs DMSO), 5 days (fraction); higher = more cells survive",
  "key": {"Idelalisib + Tozasertib": {"compound": "CC[C@H](Nc1ncnc2[nH]cnc12)c1nc2cccc(F)c2c(=O)n1-c1ccccc1 [Idelalisib] + Cc1cc(Nc2cc(N3CCN(C)CC3)nc(Sc3ccc(NC(=O)C4CC4)cc3)n2)n[nH]1 [Tozasertib] (partner 0.1 µM)", "summary_of_the_method": "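For relative viability, nuclei counts in treated wells were divided by those in vehicle wells. Lung cancer cell lines had been pin-tool dosed in 1536-well plates the day after seeding and cultured for 5 days, then fixed and stained in one step (final 0.05% Triton X-100, 1% formaldehyde, 1 ug/ml Hoechst) and imaged at 4×. Doses were one drug alone or a fixed anchor-drug dose plus five library-drug doses (not always all listed) in √10 steps, and values are duplicate-plate medians.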"}, "Pemetrexed": {"compound": "Nc1nc2[nH]cc(CCc3ccc(C(=O)N[C@@H](CCC(=O)O)C(=O)O)cc3)c2c(=O)[nH]1 [Pemetrexed]", "summary_of_the_method": "(§1)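 For viability, nuclei in each treated well were divided by nuclei in vehicle wells and the median across plates was taken. Lung cancer cell lines in 1536-well plates were pinned with five library-drug doses (not always all listed) spaced by √10, cultured 5 days without medium change, and imaged at 4× after Hoechst staining, with plates passing only at control CV below 25% and at least one doubling.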"}, "Idelalisib": {"compound": "CC[C@H](Nc1ncnc2[nH]cnc12)c1nc2cccc(F)c2c(=O)n1-c1ccccc1 [Idelalisib]", "summary_of_the_method": "as §1"}},
  "data": [
    {"cell line": "UMC-11", "values": [
      {"measurement": "relative viability", "setting": "Idelalisib + Tozasertib; first compound 0.04 µM", "result": 0.218},
      {"measurement": "relative viability", "setting": "Idelalisib + Tozasertib; first compound 0.1265 µM", "result": 0.192},
      {"measurement": "relative viability", "setting": "Idelalisib + Tozasertib; first compound 0.4 µM", "result": 0.203},
      {"measurement": "relative viability", "setting": "Idelalisib + Tozasertib; first compound 1.265 µM", "result": 0.188},
      {"measurement": "relative viability", "setting": "Idelalisib + Tozasertib; first compound 4 µM", "result": 0.192},
      {"measurement": "relative viability", "setting": "Pemetrexed; 0.002 µM", "result": 0.996},
      {"measurement": "relative viability", "setting": "Pemetrexed; 0.006325 µM", "result": 0.955},
      {"measurement": "relative viability", "setting": "Pemetrexed; 0.02 µM", "result": 1.04},
      {"measurement": "relative viability", "setting": "Pemetrexed; 0.06325 µM", "result": 1.03},
      {"measurement": "relative viability", "setting": "Pemetrexed; 0.2 µM", "result": 0.846},
      {"measurement": "relative viability", "setting": "Pemetrexed; 0.2 µM, anchor plate", "result": 0.805},
      {"measurement": "relative viability", "setting": "Idelalisib; 0.04 µM", "result": 1.04},
      {"measurement": "relative viability", "setting": "Idelalisib; 0.1265 µM", "result": 1.05},
      {"measurement": "relative viability", "setting": "Idelalisib; 0.4 µM", "result": 0.921},
      {"measurement": "relative viability", "setting": "Idelalisib; 1.265 µM", "result": 1.01},
      {"measurement": "relative viability", "setting": "Idelalisib; 4 µM", "result": 0.984}
    ]}
  ]
}
